Data reported in patent US20250205191A1, “R(-)-MDMA COMPOSITIONS AND METHODS OF TREATMENT” (EmpathBio, Inc., priority 2023, published 2025).

Key:
healthy volunteers [1] = assay: Phase 1 Multifaceted Empathy Test (MET); format: in vivo, human; details: 75-225 mg
Excerpt: The Multifaceted Empathy Test (MET) measures cognitive empathy (CE), explicit emotional empathy (EEE) and implicit emotional empathy (IEE).

[2] = Phase 1 clinical study, urine pharmacokinetics (urinalysis); format: in vivo, human
healthy volunteers [3] = assay: Facial Emotion Recognition Test (FERT); format: in vivo, human
healthy volunteers [4] = assay: Phase 1 Challenging Experiences Questionnaire (CEQ); format: in vivo, human; details: 6.5 hours post dosing
Excerpt: Seven Challenging Experiences Questionnaire (CEQ) factors (grief, fear, death, insanity, isolation, physical distress, and paranoia) provide a phenomenological profile of challenging aspects of experiences with R(−)-MDMA.

healthy volunteers [5] = assay: 11-Dimensions-Altered States of Consciousness (11D-ASC); format: in vivo, human
[6] = target: T1, human 5-HT2C (edited) receptor (Homo sapiens, UniProt P28335); assay: 5-HT2C (edited) agonism, inositol monophosphate accumulation (HTRF), CHO-K1 recombinant cells; format: cell-based
T1 sequence (P28335 33-458): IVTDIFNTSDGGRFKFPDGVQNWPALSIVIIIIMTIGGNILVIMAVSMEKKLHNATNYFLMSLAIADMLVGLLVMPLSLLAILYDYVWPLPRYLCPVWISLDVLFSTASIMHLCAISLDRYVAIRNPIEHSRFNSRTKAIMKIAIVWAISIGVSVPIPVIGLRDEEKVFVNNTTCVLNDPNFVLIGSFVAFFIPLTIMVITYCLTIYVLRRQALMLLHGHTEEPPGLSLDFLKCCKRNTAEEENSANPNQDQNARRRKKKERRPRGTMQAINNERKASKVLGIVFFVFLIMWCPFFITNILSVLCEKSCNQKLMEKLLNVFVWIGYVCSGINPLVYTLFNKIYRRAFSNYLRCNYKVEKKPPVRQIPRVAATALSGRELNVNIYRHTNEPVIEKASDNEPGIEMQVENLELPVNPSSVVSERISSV

[7] = target: T2, human 5-HT2C (non-edited) receptor (Homo sapiens, UniProt P28335); assay: 5-HT2C (non-edited) agonism, inositol monophosphate accumulation (HTRF), CHO-K1 recombinant cells; format: cell-based
T2 construct: expressed in transfected cells; host or cells: CHO-K1
T2 sequence (P28335 33-458): T1 sequence (P28335 33-458)

healthy volunteers [8] = assay: Phase 1 5-Dimensions-Altered States of Consciousness (5D-ASC); format: in vivo, human; details: 75-225 mg oral
Excerpt: The 5D-ASC measures the acute drug effects using 5 primary dimensions and 11 lower-order scales to assess alterations in mood, perception and experience of self in relation to environment and thought disorder. The 5 dimensions include oceanic boundlessness, anxious ego dissolution, visionary restructuralization, auditory alterations, and reduction of vigilance.
A notable result illustrated by the ASC data was the reporting ratio of feelings of Oceanic Boundlessness (OB) relative to Dread of Ego Dissolution (DED). The ratio can be a useful metric as they are inversely correlated with psychedelic-mediated antidepressant efficacy (OB positively correlated, DED negatively correlated). […] The OB-DED ratio was consistent with the 11-Dimensional Altered States of Consciousness (11D-ASC).

[9] = Phase 1 clinical study, plasma pharmacokinetics; details: for AUC0-t / Cmax / t1/2: mean (SD); for Tmax: median (minimum, maximum)
oxytocin = assay: Phase 1 hormone response, oxytocin; format: in vivo, human; details: any cohort vs placebo group
[10] = system: rat embryonic cortical neurons; assay: In vitro rat cortical neurite outgrowth; format: cell-based; details: 3 days, vs vehicle control
Protocol: The experiment included a 0.1% sterile water vehicle negative control condition and a 250 nM donepezil positive control condition, and the number of neurites per neuron, total neurite length per neuron and branchpoints per neuron from n=12 wells per treatment were compared to the vehicle control condition.

healthy volunteers [11] = assay: Phase 1 Emotional Breakthrough Inventory (EBI); format: in vivo, human
Excerpt: Self-reported Emotional Breakthrough Inventory (EBI) include facing emotionally difficult feelings that are usually pushed aside; experiencing resolution of a personal conflict or trauma; ability to explore challenging emotions and memories; having an emotional breakthrough; achieving a sense of closure on an emotional problem; and achieving emotional release followed by sense of relief. Emotional breakthrough is an important and distinct component of the acute psychedelic experience that appears to be a key mediator (state predictor) of subsequent longer-term psychological changes in psychiatric populations. (Carhartt-Harris, et al., Trial of Psilocybin versus Escitalopram for Depression, N Engl J Med 2021; 384:1402-1411).

[12] = urine analyte after EMP-01 125 mg, Day 9
[13] = urine analyte after single oral 75 mg R(−)-MDMA, Day 1
[14] = urine analyte after single oral 125 mg R(−)-MDMA, Day 1
[15] = urine analyte after single oral 175 mg R(−)-MDMA, Day 1
[16] = urine analyte after single oral 225 mg R(−)-MDMA, Day 1
[17] = plasma analyte after oral 125 mg R(−)-MDMA, Day 9
[18] = plasma analyte after single oral 75 mg R(−)-MDMA, Day 1
[19] = plasma analyte after single oral 125 mg R(−)-MDMA, Day 1
[20] = plasma analyte after single oral 175 mg R(−)-MDMA, Day 1
[21] = plasma analyte after single oral 225 mg R(−)-MDMA, Day 1

SMILES: CN[C@H](C)Cc1ccc2c(c1)OCO2 [R(−)-MDMA, R(−)-3,4-methylenedioxymethamphetamine]
- MET LSmean scores in CE negative emotions, changes from baseline (healthy volunteers [1]): dose-dependent manner
- detection in urine ([2]; 0-4 hours postdose): detected in urine in all participants by the first collection interval
- mean cumulative amount excreted in urine (CAe), trend ([2]; across dose groups): dose-related increase
- mean renal clearance (CLr), trend ([2]; across dose groups): approximately similar across all dose groups
- mean urine concentration over collection intervals ([2]; all intervals to 30 hours): highest in the 12-24 hour collection interval
- Ae12-24, amount excreted at the 12-24 hour collection interval [2, 12]: 18.5655 (12.7511) mg
- CAe, cumulative amount of drug excreted [2, 12]: 40.5567 (15.5851) mg
- CFe, cumulative fraction of drug excreted [2, 12]: 32.4453 (12.4681) %
- CLr, renal clearance rate [2, 12]: 5.2324 (1.8093) L/h
- Fe12-24, fraction of drug excreted at the 12-24 hour collection interval [2, 12]: 14.8524 (10.2009) %
- Ae12-24, amount excreted at the 12-24 hour collection interval [2, 13]: 7.6917 (3.1509) mg
- CAe, cumulative amount of drug excreted [2, 13]: 20.0733 (9.7605) mg
- CFe, cumulative fraction of drug excreted [2, 13]: 26.7643 (13.0140) %
- CLr, renal clearance rate [2, 13]: 4.9966 (1.2255) L/h
- Fe12-24, fraction of drug excreted at the 12-24 hour collection interval [2, 13]: 10.2556 (4.2012) %
- Ae12-24, amount excreted at the 12-24 hour collection interval [2, 14]: 14.5039 (5.6733) mg
- CAe, cumulative amount of drug excreted [2, 14]: 28.2063 (7.8540) mg
- CFe, cumulative fraction of drug excreted [2, 14]: 22.5650 (6.2832) %
- CLr, renal clearance rate [2, 14]: 3.9900 (1.0288) L/h
- Fe12-24, fraction of drug excreted at the 12-24 hour collection interval [2, 14]: 11.6031 (4.5387) %
- Ae12-24, amount excreted at the 12-24 hour collection interval [2, 15]: 20.3702 (13.5536) mg
- CAe, cumulative amount of drug excreted [2, 15]: 59.6271 (34.2201) mg
- CFe, cumulative fraction of drug excreted [2, 15]: 34.0726 (19.5543) %
- CLr, renal clearance rate [2, 15]: 5.9108 (2.5782) L/h
- Fe12-24, fraction of drug excreted at the 12-24 hour collection interval [2, 15]: 11.6401 (7.7449) %
- Ae12-24, amount excreted at the 12-24 hour collection interval [2, 16]: 36.8357 (16.8611) mg
- CAe, cumulative amount of drug excreted [2, 16]: 76.0465 (15.1167) mg
- CFe, cumulative fraction of drug excreted [2, 16]: 33.7985 (6.7186) %
- CLr, renal clearance rate [2, 16]: 5.5411 (1.6424) L/h
- Fe12-24, fraction of drug excreted at the 12-24 hour collection interval [2, 16]: 16.3714 (7.4938) %
- reduction in the recognition of angry (threatening) faces (healthy volunteers [3]; 75 mg): 13.2%
- reduction in the recognition of angry (threatening) faces (healthy volunteers [3]; 125 mg): 12.3%
- reduction in the recognition of angry (threatening) faces (healthy volunteers [3]; 175 mg): 8.8%
- misclassifications to happy faces, change from baseline (mean) (healthy volunteers [3]; 225 mg): +1.16
- reduction in the recognition of angry (threatening) faces (healthy volunteers [3]; 225 mg): 12.4%
- CEQ changes from baseline (healthy volunteers [4]): clear dose-dependent response with statistical significance at higher doses
- 11D-ASC changed meaning of percepts (healthy volunteers [5]; 225 mg dose group vs comparators of FIG. 11): strongest
- 11D-ASC response profile (healthy volunteers [5]; 75-225 mg oral): psychedelic-like response
- agonism in words ([6]; 5-HT2C (edited) receptors): high potency full agonism
- Efficacy (% of a-Me-5-HT response) ([6]; 5-HT2C (edited), relative to α-Me-5-HT at its EC100): 96.6%
- agonism in words ([7]; 5-HT2C (non-edited) receptors): high potency full agonism
- Efficacy (% of a-Me-5-HT response) ([7]; 5-HT2C (non-edited), relative to α-Me-5-HT at its EC100): 97.9%
- 5D-ASC sub-components and total score (healthy volunteers [8]): dose-dependent increase in all measured sub-components and in the total score
- food effect ([9]; 125 mg fasted vs fed): No food effect
- mean plasma concentration at final PK assessments ([9]; 30 hours postdose): remained above the lower limit of quantitation
- AUC0-t [9, 17]: 7229.6028 (1863.6711) h · ng/mL
- Cmax [9, 17]: 455.4850 (65.0461) ng/mL
- t1/2 [9, 17]: 13.3444 (3.5309) hr
- Tmax [9, 17]: 2.758 (2.08, 4.02) hr
- AUC0-t [9, 18]: 3976.7452 (1350.4178) h · ng/mL
- Cmax [9, 18]: 275.8217 (90.7390) ng/mL
- t1/2 [9, 18]: 9.2622 (2.5227) hr
- Tmax [9, 18]: 3.000 (2.02, 3.00) hr
- AUC0-t [9, 19]: 7135.8809 (1245.2963) h · ng/mL
- Cmax [9, 19]: 425.2550 (62.4569) ng/mL
- t1/2 [9, 19]: 11.8615 (1.9947) hr
- Tmax [9, 19]: 3.517 (1.50, 4.02) hr
- AUC0-t [9, 20]: 10007.8882 (2324.8851) h · ng/mL
- Cmax [9, 20]: 617.3440 (158.9596) ng/mL
- t1/2 [9, 20]: 12.2009 (1.4988) hr
- Tmax [9, 20]: 4.000 (3.00, 6.02) hr
- AUC0-t [9, 21]: 14453.1811 (3684.7488) h · ng/mL
- Cmax [9, 21]: 828.6450 (213.1377) ng/mL
- t1/2 [9, 21]: 14.0772 (3.2340) hr
- Tmax [9, 21]: 5.000 (3.00, 6.02) hr
- oxytocin production (oxytocin): did not appear to have an effect
- number of neurites per neuron ([10]; 0.0001 μM): modest yet significant increases
- branchpoints per neuron ([10]; 10 μM): modest yet significant increases
- number of neurites per neuron ([10]; 10 μM): modest yet significant increases
- total neurite length per neuron ([10]; 10 μM): modest yet significant increases
- EBI, acute experience of emotional breakthroughs (healthy volunteers [11]; 225 mg vs placebo): significantly higher
- EBI, acute experience of emotional breakthroughs, dose response (healthy volunteers [11]; 75-225 mg): dose-dependent increase
